Test results reported in US20240400692A1, “CELIAC DISEASE EPITOPES” (NEXTERA AS, priority 2021, published 2024).

Assays:
chymotrypsin = biological target: T1, chymotrypsin (Bos taurus, UniProt P00766); experiment: In vitro chymotrypsin digest and mass spectrometry of recombinant gliadin; conditions: chymotrypsin 200:1 (w:w), 37° C., 24h; MS; FIG. 9E
T1 construct: purchased Sigma; host or cells: substrate gliadin: E. coli BL21 (DE3)pLysS, made by Genscript
Source text: Assessment of in vitro chymotrypsin proteolysis of the A0A0E3SZN6_TRIUA protein. The T. aestivum Q9M4L6_WHEAT (A), T. urartu A0A0E3SZN6_TRIUA (B) and T. aestivum Q9FUW7_WHEAT (C) proteins where produced and affinity purified from E. coli, followed by in vitro chymotrypsin digest and mass spectrometry analysis of the resulting peptide segments (D, E and F). The anticipated 9-mer core regions of the relevant epitopes are indicated by enumeration (D, E and F). Panel A: SDS-PAGE and Western blot analysis of Q9M4L6_WHEAT. Lane M1: Protein Marker, GenScript, Cat. No. M00516, Lane M2: Protein Marker, GenScript, Cat. No. M00521, Lane 1: BSA ([…]), Lane 2: Q9M4L6_WHEAT (Reducing condition, […]), Lane 3: Q9M4L6_WHEAT (Non-reducing condition, 2.00 μg), Lane 4: Q9M4L6_WHEAT (Reducing condition), Lane 5: Q9M4L6_WHEAT (Non-reducing condition), Primary antibody: Mouse-anti-His mAb (GenScript, Cat. No. A00186). Panel B: SDS-PAGE and Western blot analysis of A0A0E3SZN6_TRIUA. […]
Recombinant gliadins were in vitro chymotrypsin digested essentially as described (Molberg O, et al., Methods Mol Med. 2000; 41:105-24). […] MS spectra were analyzed by using the PEAKS studio software (Bioinformatics Solutions Inc.) searched against a custom databased made by the respective gliadin Uniprot accession codes.

[1] = tested on: T cells in HLA-DQ2.5 typed PBMCs; experiment: Intracellular IFN-γ flow assay of peptide-stimulated PBMCs; assay type: cell-based, human; conditions: HC donor 557; 20 μM peptide; 48h; FIG. 14B
[2] = tested on: T cells in HLA-DQ2.5 typed PBMCs; experiment: as above; assay type: cell-based, human; conditions: for expansion of IFN-γ positive cells in the CD3+/CD4− cell population / expansion of IFN-γ positive CD4 T cells, CeD donor: 20 μM peptide; for expansion of IFN-γ positive cells in the CD3+/CD4− cell population / expansion of IFN-γ positive CD4 T cells, CeD donor / presence of response in tested CeD PBMC material / responses in healthy controls: 48h; for expansion of IFN-γ positive cells in the CD3+/CD4− cell population: FIG. 14C; for peptide reactivity, CeD donor 595: no statistical difference; for expansion of IFN-γ positive CD4 T cells, CeD donor: CeD donor 595, average, FIG. 14B; for presence of response in tested CeD PBMC material: CeD donors 585, 595 and 600; for presence of response in tested CeD PBMC material / responses in healthy controls: 20 μM; for responses in healthy controls: two HCs (557 and 558), FIG. 15B
Source text: Intracellular IFNγ flow assessment of CD4 T cell peptide stimulatory capacity using PBMCs. Cryopreserved HLA-DQ2.5 typed PBMCs from confirmed healthy controls (HC) and CeD patients were purchased (HemaCare-Cellero) and used in autologous in vitro T cell peptide stimulation assays followed by intracellular IFNγ staining in flow. (A) PBMCs from CeD donor 595 were used to set intracellular IFNγ baseline detection gates on CD3/CD4 T cells using anti-IFNγ-PE. (B and C) Bar graph representing intracellular IFNγ detection in CD4+/IFNγ+(B) and CD4−/IFNγ+(C) gates as illustrated in A. PBMCs from CeD donor 595 and HC 575 were stimulated with 20 μM DQ2.5-glia 33-mer (N-[…]-C(SEQ ID NO:59)) and A0A0E3SZN6_p6E_long (N-[…]-C(SEQ ID NO:30)), for 48h followed by intracellular T cell IFNγ detection.
Intracellular IFN-γ flow assessment of CD4 T cell peptide stimulatory capacity using PBMCs. Cryopreserved HLA-DQ2.5 typed PBMCs from confirmed healthy controls (HC) and CeD patients were purchased (HemaCare-Cellero) and used in autologous in vitro T cell peptide stimulation assays followed by intracellular IFN-γ staining in flow. Intracellular IFN-γ baseline detection gates on CD3/CD4 T cells using anti-IFN-γ-PE were set as in FIG. 14.
PBMCs from CeD donors (585, 595 and 600) and HCs (557 and 558) were stimulated with 20 μM DQ2.5-glia 33-mer (N-[…]-C(SEQ ID NO:59)) and A0A0E3SZN6_p6E_long (N-[…]-C(SEQ ID NO:30)), for 48h followed by intracellular T cell IFN-γ detection (A and B). Values are presented as mean values and ±SEM.
Peptide-stimulated PBMCs were assessed for intracellular IFN-γ following reagents and the standard protocol from BioLegend (https://www.biolegend.com/). Briefly, cryopreserved human HLA-DQ2.5^+ PBMCs (HemaCare-Cellero) where gently thawed and washed in ice-cold PBS before resuspended into RPMI1640 supplemented with 10% FCS (v/v) before volumes of 1 ml (about 2×10^7 cells) were aliquoted into a 24-well microtiter plate (NUNC). One set of wells received either 20 μM of peptide (either A0A0E3SZN6_p6E_long ([…] (SEQ ID NO:30)) or 33-mer ([…] ([…]))). […] The cells were grown at standard conditions at 37° C. for 36h before Brefaldin A (BioLegend) and Monensin (BioLegend) was added, and incubation continued for another 12 h. The cells were then assessed for intracellular IFN-γ by flow. Data was acquired on a BD Accuri C6 cytometer (BD Biosciences) and analyzed using FlowJo software V10 (Tree Star).

107 antibody = experiment: FACS of antibody binding to peptides pulsed onto DQ2.5+ Raji cells, 107 antibody; assay type: cell-based; conditions: 50 μM peptide pulsed onto human DQ2.5+ Raji cells
Protocol: (§1) Assessment of antibody binding to the A0A0E3SZN6_TRIUA epitope candidate. […] The indicated peptides (50 μM) were pulsed onto human DQ2.5*Raji cells and antibody binding was tested in FACS as described (B).
(§2) Assessment of antibody binding to the physiological relevant forms of the A0A0E3SZN6_TRIUA epitope candidate. The T. urartuA0A0E3SZN6_TRIUA (A) and T. aestivum Q9M4L6_WHEAT (B) sequences were in silico digested with tryspin and chymotrypsin, and the relevant digested fragments shown underlined (A and B). […] The known P positions are indicated (C). The indicated peptides were pulsed (50 μM) onto human DQ2.5*Raji cells and antibody binding was tested in FACS as described (D).
(§3) To identify putative gliadin-derived sequences different from, but with similarity to, the 30 DOQ.2.5-glia-α1a epitope (PFPQP{right arrow over (E)}LPY (SEQ ID NO:4)), the UniProtKB protein database was searched using the ScanProsite tool (https://prosite.expasyorg/scanprosite/). […] More specifically, we fixed the proline (P) in p1, the glutamine (Q) in p6, the tyrosine (Y) in p9, and P was disallowed in the position p10 after the p9 Y (underlined). To focus the output of the searches, we restricted the output to the Triticum taxonomic group. […] In some cases, Q residues were exchanged with glutamate (E) in the peptide synthesis in order to mimic positional deamidation.

4.7C antibody = experiment: FACS of antibody binding to peptides pulsed onto DQ2.5+ Raji cells, 4.7C antibody; assay type: cell-based; conditions: 50 μM peptide pulsed onto human DQ2.5+ Raji cells
Protocol: as §1, §2, §3

[3] = A0A0E3SZN6 peptide versus 33-mer, FIG. 15A

Chain of 4.7C antibody (as listed by the source, other chains not shown): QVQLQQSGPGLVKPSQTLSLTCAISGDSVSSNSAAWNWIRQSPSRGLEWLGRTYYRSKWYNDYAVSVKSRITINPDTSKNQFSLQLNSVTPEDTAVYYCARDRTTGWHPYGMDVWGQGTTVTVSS
Chain of 4.7C antibody (as listed by the source, other chains not shown): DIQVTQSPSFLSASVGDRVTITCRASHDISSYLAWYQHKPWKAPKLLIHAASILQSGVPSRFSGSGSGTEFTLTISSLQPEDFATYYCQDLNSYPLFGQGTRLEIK
Chain of 107 antibody (as listed by the source, other chains not shown): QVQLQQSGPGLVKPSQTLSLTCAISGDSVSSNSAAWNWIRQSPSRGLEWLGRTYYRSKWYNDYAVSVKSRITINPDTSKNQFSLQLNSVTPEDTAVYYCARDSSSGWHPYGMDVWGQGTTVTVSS

## A0A0E3SZN6_TRIUA: omega-gliadin protein of Triticum urartu (SEQ ID NO:1), produced recombinantly in E. coli (QPQQPYP)
chymotrypsin
  processing of the 9-mer core by chymotrypsin proteolysis: no destructive processing was observed of the postulated novel 9-mer core peptide

## LQLQPFPQPELPYPQPELPYPQPELPYPQPQPF (SEQ ID NO:55) [33-mer, reference compound]
[1]
  expansion of IFN-γ positive CD4 T cells, healthy control: no such expansion
[2]
  expansion of IFN-γ positive cells in the CD3+/CD4− cell population: not seen
  expansion of IFN-γ positive CD4 T cells, CeD donor: 4.2%
  responses in healthy controls: no responses
[2]; [3]
  peptide reactivity, CeD donor 585: appeared to favor
  peptide reactivity, CeD donor 595: about equal on both
[2]; FIG. 15A
  presence of response in tested CeD PBMC material: 2/3

## PQPELPYPQPE (SEQ ID NO:57) [DQ2.5-glia-α2, reference compound]
107 antibody
  binding of 107 antibody to peptide-pulsed Raji cells (FACS): No binding
4.7C antibody
  binding of 4.7C antibody to peptide-pulsed Raji cells (FACS): No binding

## PQQPYPEQEQPYGT (SEQ ID NO:63) [EE]
107 antibody
  binding of 107 antibody to peptide-pulsed Raji cells (FACS): bind well
4.7C antibody
  binding of 4.7C antibody to peptide-pulsed Raji cells (FACS): bind well

## PQQPYPEQQQPYGT (SEQ ID NO:62) [form of the peptide with E at position 4 of the 9-mer]
107 antibody
  binding of 107 antibody to peptide-pulsed Raji cells (FACS): not

## PQQPYPQQEQPYGT (SEQ ID NO:29)
107 antibody
  binding of 107 antibody to peptide-pulsed Raji cells (FACS): bind well
4.7C antibody
  binding of 4.7C antibody to peptide-pulsed Raji cells (FACS): bind well

## PQQPYPQQQQPYGT (SEQ ID NO:24)
107 antibody
  binding of 107 antibody to peptide-pulsed Raji cells (FACS): not

## PYPQQEQPY (SEQ ID NO:25) [p6 deamidated 9-mer]
107 antibody
  binding of 107 antibody to peptide-pulsed Raji cells (FACS): no binding
4.7C antibody
  binding of 4.7C antibody to peptide-pulsed Raji cells (FACS): no binding

## QPQQPYPQQEQPYGTSL (SEQ ID NO:30) [A0A0E3SZN6 peptide]
[1]
  expansion of IFN-γ positive CD4 T cells, healthy control: no such expansion
[2]
  expansion of IFN-γ positive cells in the CD3+/CD4− cell population: not seen
  expansion of IFN-γ positive CD4 T cells, CeD donor: 2.8%
  responses in healthy controls: no responses
[2]; [3]
  peptide reactivity, CeD donor 600: appeared to favor
  peptide reactivity, CeD donor 595: about equal on both
[2]; FIG. 15A
  presence of response in tested CeD PBMC material: 2/3
